Data as given in patent publication US6348609B1, “Method for obtaining an oil that is rich in hydroxyoctadecadienoic fatty acids (HODE) or the esters thereof from a mixture containing linoleic acid or the esters thereof” (Laboratoires Arkopharma, priority 1999, dated 2002).

Tests used:
[1] = skin penetration in vitro on human skin with Franz cells; type: in vitro ADME
Procedure: A study of skin penetration is carried out in vitro on human skin with Franz cells. These cells comprise a surface area of human skin of 1.76 cm^2 on which is placed 800 μg of 9-HODE. After 6 hours of contact, an assay of the 9-HODE is carried out by gas chromatography at the surface of the human skin sample, in the epidermis, in the dermis and in the receiving phase.

human adipocytes = experiment: production of cAMP in human adipocytes (lipolysis activation); type: cell-based
Description: The aim of this study is to study the effect of 9-HODE on the production of cAMP (cyclic adenosine monophosphate) which is a lipolysis activator, in human adipocytes. The effect of 9-HODE is studied relative to that of adrenaline and caffeine which are two molecules that are known for their lipolysis-stimulating effects.

[2] = 800 μg on 1.76 cm^2 human skin, after 6 hours of contact
[3] = 9-HODE 10^−4 M, human adipocytes

| 9-HODE assayed at the surface of the skin [1, 2] [%] | 9-HODE assayed in the dermis [1, 2] [%] | 9-HODE assayed in the epidermis [1, 2] [%] | 9-HODE assayed in the receiving phase [1, 2] [%] | skin-penetrating power ([1]; human skin, Franz cells) | SMILES | concentration of cAMP, times greater than that obtained with caffeine (human adipocytes; 9-HODE 10^−3 M, human adipocytes) [times] | increase in cAMP relative to adrenaline (human adipocytes; [3]) | increase in cAMP relative to caffeine (human adipocytes; [3]) | concentration of cAMP (human adipocytes; 9-HODE concentration of 10^−3 M, human adipocytes) | conclusion on lipolysis activation in vitro (human adipocytes; in vitro, by stimulating production of cAMP by adipocytes) | concentration of cAMP (human adipocytes; caffeine comparator, concentration not given, human adipocytes) |
| --- | --- | --- | --- | --- | --- | --- | --- | --- | --- | --- | --- |
| 33 | 32 | 11 | 24 | high skin-penetrating power | CCCCCC=CC=CC(O)CCCCCCCC(=O)O (centres unmarked) [9-HODE, 9-hydroxy-10,12-octadecadienoic acid] | 10 | greater than that obtained, irrespective of the concentration, by adrenaline | equivalent to that of caffeine 10^−3 M | 7.940 femtomol of cAMP/million adipocytes | powerful lipolysis activator |  |
|  |  |  |  |  | Cn1c(=O)c2c(ncn2C)n(C)c1=O [caffeine, reference compound] |  |  |  |  |  | 799 femtomol of cAMP/million adipocytes |
